Measurements published in US9643971B2 (GALLEON PHARMACEUTICALS, INC., priority 2013, dated 2017).
“Also recorded” adds a separate entry of the source. Structures can show the parent of a compound that is named as a salt. Where two headings read alike, the source gives them in different places.

How the values were obtained:
anesthetized rat = assay: Anesthetized rat spirometry screening assay; type: in vivo
Summary of the method: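 Rats under urethane (1.5 g/kg i.v., after isoflurane induction) with femoral and tracheal cannulas; compounds given as i.v. bolus at 0.1 and 0.3 mg/kg with formulation-matched vehicle. RR, VT and minute volume from pneumotachometer airflow, in 30 s bins over 6 min post-dose; arterial blood gases taken pre- and 6 min post-dose.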

[1] = Pharmacokinetic and oral bioavailability in the rat; type: in vivo, Sprague-Dawley rats; settings: Sprague-Dawley, plasma, oral gavage 10-30 mg/kg vs intravenous bolus 2-5 mg/kg
Experimental: Sprague-Dawley rats (200-300 g) were fed a standard laboratory rodent diet and housed in individual cages on a 12-hour light and 12-hour dark cycle with room temperature maintained at 22±3° C. and relative humidity at 50±20%. Rats were fasted overnight before dosing, with food returned after the 6 hour blood samples were obtained. Bedding was removed until after the 6 hour blood samples were obtained. Water was provided ad libitum throughout the study.
Dosing solution of test compound was prepared in desired oral formulation for oral administration via gavage needle at 10-30 mg/kg (10 mL/kg) to three or four rats. […]
Plasma samples (incurred study samples, calibration standards, quality controls) were normally prepared as follows. […] Calibration standards were typically prepared in the range of 2 ng/ml to 10 μg/mL for quantitation. […]
All pharmacokinetic parameters were determined based on a non-compartmental approach using WinNonlin software (Pharsight, Version 5.1). The terminal elimination half-life (t1/2) was calculated as ln2/λz using the slope (λz) from linear regression analysis of the terminal phase of the plasma concentration-time curve on a semi-log scale. […] The systemic plasma clearance (CLp) was calculated as intravenous dose divided by AUCinf. The volume of distribution at steady state (Vss) was determined as the product of CLp and MRT. […]

in vitro = settings: male, rat, microsomes
[2] = In vitro metabolic stability in human liver microsomes (HLM); settings: for half-life at 5 μM: both, human; for HLM T½: human liver microsomes, 5 μM compound, NADPH, 37° C.
[3] = rat, microsomes
[4] = In vitro metabolic stability in rat liver microsomes (RLM)
[5] = test system: rats chronically treated with morphine; assay: Apnea, ventilation and sleep structure in rats chronically treated with morphine (whole-body plethysmography); type: in vivo, Zucker rats; settings: oral gavage, hydrochloride
Text: The objective of this study was to quantify the effects of selected compounds of this invention on apnea, ventilation and sleep structure in a rat model. The study consisted of two treatment conditions: (1) chronic morphine and test compound administered orally, and (2) chronic morphine and oral vehicle.
Adult male lean Zucker rats were anesthetized for electroencephalogram (EEG) and electromyogram (EMG) telemeter implantation. At least one week was permitted post-surgery before animals were used further. Morphine sulfate was added to the drinking water of singly housed rats beginning with 0.1 mg/ml morphine and increasing the concentration in increments, so that a final concentration of 0.6 mg/ml was achieved within 2 weeks. All respiratory measurements were made while animals were unrestrained in whole-body plethysmography chambers to permit animals to sleep and move freely. To avoid eliciting withdrawal, morphine water was continuously available during each plethysmography experiment. Minute volume and the number of central sleep apneas (CSA) were measured during all treatment conditions. A period of at least 1 to 1.5 h was permitted for animals to acclimate to the chamber before data collection began. The biopotential telemeters and their receivers were placed directly under the plethysmographic chambers and were used to continuously to capture EEG, EMG, and body temperature signals. Only data collected between the hours of 10 am to 4:30 pm were used in the final analysis to control for the effects of circadian rhythm on breathing.
Test compound in vehicle or an equivalent volume of vehicle was administered via an oral gavage tube at 12 pm. Data collected between 10 am and 12 pm represented baseline (pre-drug) conditions. Data collected between […] represented post-drug conditions. Analyses of the EEG and EMG waveforms for the purpose of staging sleep-wake behavior in rats as awake, NREM sleep, and REM sleep were based on previous sleep studies involving rodents. Central apneas were defined as a respiratory cycle period that was more than or equal to twice the average cycle period during baseline recordings. Percent time in each sleep-wake state, minute volume, and central sleep apnea counts were compared between treatment groups using a two-way ANOVA (factors: drug treatment and time). Breathing data during wakefulness was not analyzed because movement prevents measurement of accurate volumes when using whole-body plethysmography. When differences were detected with ANOVA, Student-Neuman-Keuls post hoc tests were run for all main effects and interactions. Differences were considered significant when p<0.05. Values are expressed as means±SE.

physchem = settings: organic solvent or mixture, thermodynamic from solid
Experimental: A 3 mL vial with a screw cap was charged with 50 mg of the solid salt and 1 mL of a solvent at room temperature. The mixture was heated if necessary to achieve a clear solution, in some examples producing a mixture comprising a clear portion and a melt or incompletely dissolved crystalline material. The hot mixture was cooled to room temperature. […] Solvents evaluated include acetonitrile, methyl ethyl ketone, methyl isobutyl ketone, ethyl acetate, isopropyl acetate, water, heptane, methyl-tert-butyl ether, cyclohexane, toluene, methanol, ethanol, n-propanol, isopropanol, n-butanol, 2-butanol, isoamyl alcohol, and tetrahydrofuran.

[6] = 2 minute AUC of minute volume increase vs. comparator N-[2,6-di-(n-propylamino)-[1,3]pyrimidin-4-yl]-N,O-dimethyl-hydroxylamine
[7] = peak minute ventilation increase, urethane-anesthetized rat, i.v. bolus, screening doses 0.1 and 0.3 mg/kg
[8] = versus treatment with a vehicle

Question: Which “AUC MV Inc (2 min) (ratio vs. std*)” value (anesthetized rat; [6]) does the source give for `CCCNc1nc(NC)nc2c(NCCC)nc(NC)nc12.Cl` [Compound 4a, N^2,N^6-Dimethyl-N^4,N^8-di-n-propyl-pyrimido[5,4-d]pyrimidine-2,4,6,8-tetraamine hydrochloride] here?
Answer: Its value is 1.28 ratio vs. std.

Question: And the “duration of increase in minute ventilation” value (anesthetized rat; anesthetized rat, i.v. bolus)?
Answer: The value was “approximately 2 minutes”.

Question: And the “effect on blood pressure” value (anesthetized rat; anesthetized rat, i.v. bolus)?
Answer: Its value is “negligible effects”.

Question: And the “effect on minute ventilation above baseline values” (anesthetized rat; anesthetized rat, i.v. bolus)?
Answer: Its value is “increase”.

Question: What about the “effect on pulse rate” value (anesthetized rat; anesthetized rat, i.v. bolus) of the same molecule?
Answer: The value was “negligible effects”.

Question: What about the “effect on respiratory rate” value (anesthetized rat; anesthetized rat, i.v. bolus) of the same molecule?
Answer: Its value is “stimulatory effects on respiratory rate primarily”.

Question: And the “dose dependence of effect on minute volume” value (anesthetized rat; based on a two-minute average)?
Answer: Its value is “dose-dependent effect”.

Question: What about the “effect compared to a reference compound as measured by area-under-curve” value (anesthetized rat; minute volume, two-minute average) of the same molecule?
Answer: Its value is “greater effect”.

Question: What about the bioavailability [1] of the same molecule?
Answer: Its bioavailability is 38%.

Question: What about the melting point of the same molecule?
Answer: Its melting point is 229 to 232 °C.

Question: What about the half-life at 5 μM (in vitro) of the same molecule?
Answer: The half-life at 5 μM was 4.55 h.

Question: What about the half-life at 5 μM ([2]; liver microsomes) of the same molecule?
Answer: The half-life at 5 μM was 6.85 h.

Question: For `C#CCNc1nc(N(C)OC)nc2c(NCCC)nc(N(C)OC)nc12.Cl` [Compound 15a, N^2,N^6-Bis(N-methoxy(N-methyl)amino)-N^4-n-propylamino-N^8-prop-2-ynylamino-pyrimido[5,4-d]pyrimidine hydrochloride], which “AUC MV Inc (2 min) (ratio vs. std*)” value (anesthetized rat; [6]) is on record?
Answer: Its value is 0.00 ratio vs. std.

Question: And the “VE Peak (% Inc.)” value (anesthetized rat; [7])?
Answer: Its value is 6 % Inc.

Question: What about the “RLM T½” value [3] of the same molecule?
Answer: Its value is 0.567 h.

Question: And the “HLM T½” value [2]?
Answer: The value was 1.52 h.

Question: For `CCCNc1nc(NC)nc2c(NCCC)ncnc12.Cl` [Compound 22a, N^2-Methyl-N^4,N^8-di-n-propylpyrimido[5,4-d]primidine-2,4,8-triamine hydrochloride], which “AUC MV Inc (2 min) (ratio vs. std*)” value (anesthetized rat; [6]) is on record?
Answer: The value was 0.01 ratio vs. std.

Question: What about the “VE Peak (% Inc.)” value (anesthetized rat; [7]) of the same molecule?
Answer: Its value is 9 % Inc.

Question: What about the “RLM T½” value [3] of the same molecule?
Answer: The value was 0.15 h.

Question: What about the “HLM T½” value [2] of the same molecule?
Answer: Its value is 0.35 h.

Question: With `CCCNc1nc(NCCC(F)(F)F)nc2c(NCCC)nc(NC)nc12` [Compound 39a, hydrochloride] as the molecule, how does the “AUC MV Inc (2 min) (ratio vs. std*)” value (anesthetized rat; [6]) read?
Answer: The value was 0.71 ratio vs. std.

Question: And the half-life at 5 μM ([4]; male, rat, microsomes)?
Answer: The half-life at 5 μM was 2.57 h.

Question: What about the half-life at 5 μM ([2]; microsomes) of the same molecule?
Answer: Its half-life at 5 μM is 3.97 h.

Question: With `CCCNc1nc(N2CCOCC2)nc2c(NCCC)nc(NC)nc12` [Compound 41a, N^2-Methyl-N^4N^8-di-n-propyl-6-(morpholin-4-yl)-pyrimido[5,4-d]pyrimidine-2,4,8-triamine] as the molecule, how does the “AUC MV Inc (2 min) (ratio vs. std*)” value (anesthetized rat; rat, in vivo) read?
Answer: Its value is 0.36 ratio vs. std.

Question: And the “VE Peak (% Inc.)” value (anesthetized rat; rat, in vivo)?
Answer: Its value is 57 % Inc.

Question: What about the “RLM T½” value ([4]; rat liver microsomes, 5 μM compound, NADPH, 37° C.) of the same molecule?
Answer: Its value is 1.67 h.

Question: What about the “HLM T½” value [2] of the same molecule?
Answer: The value was 3.12 h.

Question: What does the source list for `CNc1nc(NCC2CC2)nc2c(NC)nc(NCC3CC3)nc12.Cl` [Compound 85a, N^2,N^6-Bis-cyclopropylmethyl-N^4,N^8-dimethyl-pyrimido[5,4-d]pyrimidine-2,4,6,8-tetraamine hydrochloride]?
Answer: AUC MV Inc (2 min) (ratio vs. std*) (anesthetized rat; [6]): 0.51 ratio vs. std; apnea frequency [5, 8]: reduced; also recorded: decreased; number of apneas per hr expressed as a percent change from baseline (pre-drug) [5, 8]: reduced; also recorded: decreased; minute volume compared to a vehicle-treated group [5]: did not cause an increase; also recorded: do not cause increases; number of apneas per hr versus vehicle [5]: reduced; also recorded: decreased; ventilation per unit time compared to vehicle [5]: did not cause an increase; also recorded: do not cause an increase; melting point: 264 to 265 °C; half-life at 5 μM (in vitro): 6.43 h; solubility (physchem; Reflux): > 50 mg/mL; solubility (physchem; r.t.): < 50 mg/mL; half-life at 5 μM ([2]; liver microsomes): 6.48 h
